Source: patent publication US6861409B2, “Growth hormone secretagogues” (Zentaris AG, priority 2000, dated 2005)

Assays:
plasma GH concentrations = test: Growth hormone releasing activity in the infant rat (plasma GH by RIA); type: in vivo, Sprague Dawley rats; settings: Table 1 test series; male 10-day-old rats; 300 μg/kg subcutaneously; plasma 15 min later
Procedure: Male 10-day-old Sprague Dawley rats, about 25 g body weight were used.
One hour before the experiments, pups were separated from their respective dams and were divided randomly into groups of eight each.
Pups were acutely challenged subcutaneously with 100 μl of solvent (DMSO, final dilution 1:300 in physiological saline), hexarelin (Tyr-Ala-His-D-Mrp-Ala-Trp-D-Phe-Lys-NH2, used as a reference drug), or new compounds (300 μg/kg) and killed by decapitation 15 min later.
Trunk blood was collected and centrifuged immediately. Plasma samples were stored at −20° C. until assayed for the determination of plasma GH concentrations.
Growth hormone concentrations in plasma were measured by RIA using materials provided by the National Institute of Diabetes, Digestive and Kidney Diseases (NIDDK) of the National Institute of Health U.S.A.
Values were expressed in terms of the NIDDK-rat-GH-RP-2 standard (potency 21 U/mg) as ng/ml of plasma.
The minimum detectable value of rat GH was about 1.0 ng/ml, and intraassay variability was about 6%.

Concentration GH = test: Time dependence of the oral activity in the dog (plasma GH); type: in vivo, dog (beagles); parameters: AUC (Area under the curve) of GH concentration: unit not given here; settings: 1 mg/kg per os
Procedure: Furthermore the time dependence of the oral activity in the dog (1 mg/kg; per os) was estimated for example 1 (H-Aib-D-Trp-D-gTrp-CHO). Well-trained beagles of either sex, >10 year, 10-15 kg by weight, were used. Animals were fed normal dry food with water ad libitum and were on a 12 h-light/12 h-dark regimen with on at 7.00. The compound was administered orally to the dogs which had fasted since 16.00 of the preceding day. Blood samples were taken 20 min before administration, at administration and 15, 30, 60, 90, 120 and 180 min after administration.

**Q.** How did the GH (plasma GH concentrations) turn out when `CC(C)(N)C(=O)N[C@H](Cc1c[nH]c2ccccc12)C(=O)N[C@H](Cc1c[nH]c2ccccc12)NC=O` [Example 1, H-Aib-D-Trp-D-gTrp-CHO] was run?
**A.** The GH was 158.8 ± 39.4 ng/mL.

**Q.** What about the “AUC (Area under the curve) of GH concentration” value (shortened to “AUC (Area under the curve)”) (Concentration GH; MEAN VALUE of 6 dogs) of the same compound?
**A.** The value was 675.35.

**Q.** And the “Concentration GH” value (Concentration GH; MEAN VALUE of 6 dogs, t 0 min (at administration))?
**A.** The value was 1.79 ng/mL.

**Q.** And the “Concentration GH” value (Concentration GH; MEAN VALUE of 6 dogs, t 15 min after administration)?
**A.** The value was 5.32 ng/mL.

**Q.** And the “Concentration GH” value (Concentration GH; MEAN VALUE of 6 dogs, t 30 min after administration)?
**A.** Its value is 5.5 ng/mL.

**Q.** And the “Concentration GH” value (Concentration GH; MEAN VALUE of 6 dogs, t 60 min after administration)?
**A.** Its value is 3.52 ng/mL.

**Q.** And the “Concentration GH” value (Concentration GH; MEAN VALUE of 6 dogs, t 90 min after administration)?
**A.** The value was 3.59 ng/mL.

**Q.** And the “Concentration GH” value (Concentration GH; MEAN VALUE of 6 dogs, t 120 min after administration)?
**A.** The value was 3.42 ng/mL.

**Q.** And the “Concentration GH” value (Concentration GH; MEAN VALUE of 6 dogs, t 180 min after administration)?
**A.** Its value is 3.04 ng/mL.

**Q.** And the “Concentration GH” value (Concentration GH; MEAN VALUE of 6 dogs, t −20 min (before administration))?
**A.** Its value is 2.07 ng/mL.

**Q.** And the “AUC (Area under the curve)” value (Concentration GH; dog DAKOTA)?
**A.** The value was 328.53.

**Q.** What about the “Concentration GH” value (Concentration GH; dog DAKOTA, t 0 min (at administration)) of the same compound?
**A.** Its value is 0.35 ng/mL.

**Q.** What about the “Concentration GH” value (Concentration GH; dog DAKOTA, t 15 min after administration) of the same compound?
**A.** The value was 2.11 ng/mL.

**Q.** What about the “Concentration GH” value (Concentration GH; dog DAKOTA, t 30 min after administration) of the same compound?
**A.** Its value is 0.54 ng/mL.

**Q.** What about the “Concentration GH” value (Concentration GH; dog DAKOTA, t 60 min after administration) of the same compound?
**A.** Its value is 0.17 ng/mL.

**Q.** What about the “Concentration GH” value (Concentration GH; dog DAKOTA, t 90 min after administration) of the same compound?
**A.** The value was 0.4 ng/mL.

**Q.** What about the “Concentration GH” value (Concentration GH; dog DAKOTA, t 120 min after administration) of the same compound?
**A.** Its value is 3.58 ng/mL.

**Q.** What about the “Concentration GH” value (Concentration GH; dog DAKOTA, t 180 min after administration) of the same compound?
**A.** Its value is 3.46 ng/mL.

**Q.** And the “Concentration GH” value (Concentration GH; dog DAKOTA, t −20 min (before administration))?
**A.** The value was 0.48 ng/mL.

**Q.** What about the “AUC (Area under the curve)” value (Concentration GH; dog FORREST LEE) of the same compound?
**A.** The value was 888.91.

**Q.** And the “Concentration GH” value (Concentration GH; dog FORREST LEE, t 0 min (at administration))?
**A.** The value was 2.01 ng/mL.

**Q.** What about the “Concentration GH” value (Concentration GH; dog FORREST LEE, t 15 min after administration) of the same compound?
**A.** The value was 6.38 ng/mL.

**Q.** And the “Concentration GH” value (Concentration GH; dog FORREST LEE, t 30 min after administration)?
**A.** Its value is 8.48 ng/mL.

**Q.** And the “Concentration GH” value (Concentration GH; dog FORREST LEE, t 60 min after administration)?
**A.** Its value is 4.41 ng/mL.

**Q.** And the “Concentration GH” value (Concentration GH; dog FORREST LEE, t 90 min after administration)?
**A.** Its value is 6.42 ng/mL.

**Q.** And the “Concentration GH” value (Concentration GH; dog FORREST LEE, t 120 min after administration)?
**A.** The value was 3.71 ng/mL.

**Q.** What about the “Concentration GH” value (Concentration GH; dog FORREST LEE, t 180 min after administration) of the same compound?
**A.** The value was 3.18 ng/mL.

**Q.** And the “Concentration GH” value (Concentration GH; dog FORREST LEE, t −20 min (before administration))?
**A.** Its value is 1.43 ng/mL.

**Q.** And the “AUC (Area under the curve)” value (Concentration GH; dog JORMA)?
**A.** The value was 658.38.

**Q.** What about the “Concentration GH” value (Concentration GH; dog JORMA, t 0 min (at administration)) of the same compound?
**A.** The value was 2.75 ng/mL.

**Q.** And the “Concentration GH” value (Concentration GH; dog JORMA, t 15 min after administration)?
**A.** Its value is 8.91 ng/mL.

**Q.** What about the “Concentration GH” value (Concentration GH; dog JORMA, t 30 min after administration) of the same compound?
**A.** Its value is 6.85 ng/mL.

**Q.** What about the “Concentration GH” value (Concentration GH; dog JORMA, t 60 min after administration) of the same compound?
**A.** The value was 2.65 ng/mL.

**Q.** What about the “Concentration GH” value (Concentration GH; dog JORMA, t 90 min after administration) of the same compound?
**A.** The value was 2.47 ng/mL.

**Q.** And the “Concentration GH” value (Concentration GH; dog JORMA, t 120 min after administration)?
**A.** Its value is 2.48 ng/mL.

**Q.** And the “Concentration GH” value (Concentration GH; dog JORMA, t 180 min after administration)?
**A.** Its value is 2.82 ng/mL.

**Q.** And the “Concentration GH” value (Concentration GH; dog JORMA, t −20 min (before administration))?
**A.** The value was 3.58 ng/mL.

**Q.** And the “AUC (Area under the curve)” value (Concentration GH; dog MARKUS)?
**A.** Its value is 944.26.

**Q.** And the “Concentration GH” value (Concentration GH; dog MARKUS, t 0 min (at administration))?
**A.** The value was 2.55 ng/mL.

**Q.** And the “Concentration GH” value (Concentration GH; dog MARKUS, t 15 min after administration)?
**A.** Its value is 6.11 ng/mL.

**Q.** What about the “Concentration GH” value (Concentration GH; dog MARKUS, t 30 min after administration) of the same compound?
**A.** The value was 6.9 ng/mL.

**Q.** And the “Concentration GH” value (Concentration GH; dog MARKUS, t 60 min after administration)?
**A.** Its value is 6.51 ng/mL.

**Q.** And the “Concentration GH” value (Concentration GH; dog MARKUS, t 90 min after administration)?
**A.** The value was 5.18 ng/mL.

**Q.** What about the “Concentration GH” value (Concentration GH; dog MARKUS, t 120 min after administration) of the same compound?
**A.** The value was 4.54 ng/mL.

**Q.** And the “Concentration GH” value (Concentration GH; dog MARKUS, t 180 min after administration)?
**A.** The value was 4.12 ng/mL.

**Q.** And the “Concentration GH” value (Concentration GH; dog MARKUS, t −20 min (before administration))?
**A.** Its value is 2.45 ng/mL.

**Q.** What about the “AUC (Area under the curve)” value (Concentration GH; dog RAZ DEGAN) of the same compound?
**A.** The value was 510.64.

**Q.** What about the “Concentration GH” value (Concentration GH; dog RAZ DEGAN, t 0 min (at administration)) of the same compound?
**A.** The value was 1.64 ng/mL.

**Q.** And the “Concentration GH” value (Concentration GH; dog RAZ DEGAN, t 15 min after administration)?
**A.** Its value is 3.58 ng/mL.

**Q.** And the “Concentration GH” value (Concentration GH; dog RAZ DEGAN, t 30 min after administration)?
**A.** Its value is 6.37 ng/mL.

**Q.** What about the “Concentration GH” value (Concentration GH; dog RAZ DEGAN, t 60 min after administration) of the same compound?
**A.** Its value is 3.02 ng/mL.

**Q.** What about the “Concentration GH” value (Concentration GH; dog RAZ DEGAN, t 90 min after administration) of the same compound?
**A.** The value was 2.61 ng/mL.

**Q.** What about the “Concentration GH” value (Concentration GH; dog RAZ DEGAN, t 120 min after administration) of the same compound?
**A.** The value was 1.94 ng/mL.

**Q.** And the “Concentration GH” value (Concentration GH; dog RAZ DEGAN, t 180 min after administration)?
**A.** Its value is 1.49 ng/mL.

**Q.** What about the “Concentration GH” value (Concentration GH; dog RAZ DEGAN, t −20 min (before administration)) of the same compound?
**A.** Its value is 2.14 ng/mL.

**Q.** What about the “AUC (Area under the curve)” value (Concentration GH; dog TAYLOR) of the same compound?
**A.** Its value is 721.34.

**Q.** And the “Concentration GH” value (Concentration GH; dog TAYLOR, t 0 min (at administration))?
**A.** The value was 1.41 ng/mL.

**Q.** And the “Concentration GH” value (Concentration GH; dog TAYLOR, t 15 min after administration)?
**A.** Its value is 4.8 ng/mL.

**Q.** And the “Concentration GH” value (Concentration GH; dog TAYLOR, t 30 min after administration)?
**A.** Its value is 3.89 ng/mL.

**Q.** What about the “Concentration GH” value (Concentration GH; dog TAYLOR, t 60 min after administration) of the same compound?
**A.** Its value is 4.34 ng/mL.

**Q.** What about the “Concentration GH” value (Concentration GH; dog TAYLOR, t 90 min after administration) of the same compound?
**A.** Its value is 4.43 ng/mL.

**Q.** And the “Concentration GH” value (Concentration GH; dog TAYLOR, t 120 min after administration)?
**A.** Its value is 4.28 ng/mL.

**Q.** And the “Concentration GH” value (Concentration GH; dog TAYLOR, t 180 min after administration)?
**A.** Its value is 3.18 ng/mL.

**Q.** And the “Concentration GH” value (Concentration GH; dog TAYLOR, t −20 min (before administration))?
**A.** Its value is 2.32 ng/mL.
